# Columns and labels:
# Alternaria alternata = experiment: Antimicrobial activity against Alternaria alternata DMS2006 by serial dilution technique; format: functional
# Aspergillus flavus = experiment: Antimicrobial activity against Aspergillus flavus ATCC 9643 by serial dilution technique; format: functional
# Aspergillus niger = experiment: Antimicrobial activity against Aspergillus niger ATCC 6275 by serial dilution technique; format: functional
# Aspergillus ochraceus = experiment: Antimicrobial activity against Aspergillus ochraceus ATCC 12066 by serial dilution technique; format: functional
# Fusarium tricinctum = experiment: Antimicrobial activity against Fusarium tricinctum by serial dilution technique; format: functional
# Talaromyces funiculosus = experiment: Antimicrobial activity against Penicillium funiculosum ATCC 36839 by serial dilution technique; format: functional
# Penicillium ochrochloron = experiment: Antimicrobial activity against Penicillium ochrochloron ATCC 9112 by serial dilution technique; format: functional
# Trichoderma viride = experiment: Antimicrobial activity against Trichoderma viride IAM5061 by serial dilution technique; format: functional
# Bacillus subtilis = experiment: Antimicrobial activity against Bacillus subtilis ATCC 10907 by serial dilution technique; format: functional
# Micrococcus luteus = experiment: Antimicrobial activity against Micrococcus flavus ATCC 10240 by serial dilution technique; format: functional
# [1] = tested on: Staphylococcus epidermidis; experiment: Antimicrobial activity against Staphylococcus epidermidis ATCC 12228 by serial dilution technique; format: functional
# Escherichia coli = experiment: Antimicrobial activity against Escherichia coli ATCC 35210 by serial dilution technique; format: functional
# Pseudomonas tolaasii = experiment: Antimicrobial activity against Pseudomonas tolaasii by serial dilution technique; format: functional
# Salmonella enteritidis = experiment: Antimicrobial activity against Salmonella enteritidis ATCC 13076 by serial dilution technique; format: functional, Salmonella enterica subsp. enterica serovar Enteritidis; details: Salmonella enterica
SMILES,MIC (Alternaria alternata) [µM],MIC (Aspergillus flavus) [µM],MIC (Aspergillus niger) [µM],MIC (Aspergillus ochraceus) [µM],MIC (Fusarium tricinctum) [µM],MIC (Talaromyces funiculosus) [µM],MIC (Penicillium ochrochloron) [µM],MIC (Trichoderma viride) [µM],MIC (Bacillus subtilis) [µM],MIC (Micrococcus luteus) [µM],MFC (Alternaria alternata) [µM],MFC (Aspergillus flavus) [µM],MFC (Aspergillus niger) [µM],MFC (Aspergillus ochraceus) [µM],MFC (Fusarium tricinctum) [µM],MFC (Talaromyces funiculosus) [µM],MFC (Penicillium ochrochloron) [µM],MFC (Trichoderma viride) [µM],MBC (Bacillus subtilis) [µM],MBC (Micrococcus luteus) [µM],further results
Clc1ccc(COC(Cn2ccnc2)c2ccc(Cl)cc2Cl)c(Cl)c1 (configuration not stated) [MICONAZOLE],0.4,1,3,3,0.4,4,4,4,,,2,4,8,8,2,10,10,4,,,
C[C@@H]1C(=O)O[C@H]2[C@H]1[C@@H](O)C[C@]1(C)[C@@H]2[C@@H](C=O)CC[C@H]1O,0.3,0.3,0.3,0.3,0.3,0.7,0.3,0.7,0.7,0.7,0.3,0.3,0.3,0.3,0.3,0.7,0.7,0.7,0.7,0.7,MBC [1]: 1.4 µM; MIC [1]: 1 µM; MIC (Escherichia coli): 1 µM; MBC (Pseudomonas tolaasii): 0.7 µM; MIC (Pseudomonas tolaasii): 0.7 µM; MBC (Salmonella enteritidis): 1 µM; MIC (Salmonella enteritidis): 0.7 µM
C/C1=C\CC/C(CO)=C/[C@H]2OC(=O)[C@@H](C)[C@@H]2[C@@H](O)C1,0.7,0.3,0.7,0.7,0.7,0.7,0.7,0.3,0.8,1.1,0.7,0.7,0.7,0.7,0.7,0.7,0.7,0.7,1.1,1.1,MBC [1]: 1.9 µM; MIC [1]: 1.5 µM; MIC (Escherichia coli): 1.5 µM; MBC (Pseudomonas tolaasii): 0.8 µM; MIC (Pseudomonas tolaasii): 0.8 µM; MBC (Salmonella enteritidis): 1.5 µM; MIC (Salmonella enteritidis): 1.1 µM
C=C[C@]1(C)C[C@H](O)[C@@H]2[C@H](OC(=O)[C@H]2C)[C@H]1C(=C)CO,0.7,0.7,0.7,0.7,0.7,0.7,0.7,0.3,1.5,2.3,0.7,0.7,0.7,0.7,0.7,0.7,0.7,0.7,2.3,2.3,MBC [1]: 2.3 µM; MIC [1]: 2.3 µM; MIC (Escherichia coli): 2.3 µM; MBC (Pseudomonas tolaasii): 2.3 µM; MIC (Pseudomonas tolaasii): 2.3 µM; MBC (Salmonella enteritidis): 2.3 µM; MIC (Salmonella enteritidis): 2.3 µM
CN[C@@H]1[C@H](O[C@H]2[C@H](O[C@H]3[C@H](O)[C@@H](O)[C@H](N=C(N)N)[C@@H](O)[C@@H]3N=C(N)N)O[C@@H](C)[C@]2(O)C=O)O[C@@H](CO)[C@H](O)[C@H]1O [STREPTOMYCIN],,,,,,,,,0.8,0.8,,,,,,,,,0.8,1.6,MBC [1]: 1.6 µM; MIC [1]: 1.6 µM; MIC (Escherichia coli): 0.8 µM; MBC (Pseudomonas tolaasii): 1.6 µM; MIC (Pseudomonas tolaasii): 1.6 µM; MBC (Salmonella enteritidis): 1.6 µM; MIC (Salmonella enteritidis): 1.6 µM

# The remaining molecules from weak to strong by MIC (Alternaria alternata), led by results:
MIC (Alternaria alternata) [µM],MIC (Aspergillus flavus) [µM],MIC (Aspergillus niger) [µM],MIC (Aspergillus ochraceus) [µM],MIC (Fusarium tricinctum) [µM],MIC (Talaromyces funiculosus) [µM],MIC (Penicillium ochrochloron) [µM],MIC (Trichoderma viride) [µM],MIC (Bacillus subtilis) [µM],MIC (Micrococcus luteus) [µM],SMILES,MFC (Alternaria alternata) [µM],MFC (Aspergillus flavus) [µM],MFC (Aspergillus niger) [µM],MFC (Aspergillus ochraceus) [µM],MFC (Fusarium tricinctum) [µM],MFC (Talaromyces funiculosus) [µM],MFC (Penicillium ochrochloron) [µM],MFC (Trichoderma viride) [µM],MBC (Bacillus subtilis) [µM],MBC (Micrococcus luteus) [µM],further results
0.2,0.2,0.6,0.4,0.2,0.4,0.4,0.4,0.3,0.5,C[C@@H]1C(=O)O[C@@H]2C3[C@H](C=O)CCC[C@]3(C)C[C@H](O)[C@@H]12 (some centres not stated),0.2,0.4,0.6,0.4,0.4,0.6,0.4,0.4,0.5,0.7,MBC [1]: 1.1 µM; MIC [1]: 0.7 µM; MIC (Escherichia coli): 0.5 µM; MBC (Pseudomonas tolaasii): 1.1 µM; MIC (Pseudomonas tolaasii): 0.7 µM; MBC (Salmonella enteritidis): 0.5 µM; MIC (Salmonella enteritidis): 0.3 µM
0.1,0.1,0.3,0.2,0.1,0.2,0.2,0.2,0.2,0.4,C=C[C@]1(C)C[C@H](OC(=O)C(=C)CCO)[C@@H]2[C@H](OC(=O)[C@H]2C)[C@H]1C(=C)CO,0.1,0.2,0.3,0.2,0.2,0.3,0.2,0.2,0.4,0.5,MBC [1]: 0.8 µM; MIC [1]: 0.5 µM; MIC (Escherichia coli): 0.4 µM; MBC (Pseudomonas tolaasii): 0.8 µM; MIC (Pseudomonas tolaasii): 0.5 µM; MBC (Salmonella enteritidis): 0.4 µM; MIC (Salmonella enteritidis): 0.2 µM
